From US12565458B2, “Granulated agricultural composition comprising macro- and micronutrients, and related methods” (YPF SOCIEDAD ANÓNIMA, priority 2021, dated 2026)

System: wheat
Experiment: Field experiment 2, Zn impregnation on urea, wheat 2018 (Example 5)
Assay type: in vivo, wheat (SY 120)
Design: WG (weight of grains): unit not given here

NC(N)=O [Urea 200]
Yield (wheat grain yield, Pergamino 2018): 5136.4 kg ha^−1 | Dry M Z25 (initial dry matter) (wheat, Z25, Pergamino 2018): 2450.0 | Coverage and Intercep. Z65 (wheat, Z65, Pergamino 2018): 91.7 | NDVI GS 65 (Green seeker) (wheat, Z65, Pergamino 2018): 0.40 | Plant height (wheat, Z65, Pergamino 2018): 75.0 cm | Spad Z65 (green intensity) (wheat, Z65, Pergamino 2018): 40.8 Spad units | Vigor Z65 (1-5) (wheat, Z65, index 1 minimum 5 maximum): 3.9 | Plants m^−2 (number of emerged plants) (wheat, Zn impregnation on Urea, Pergamino 2018): 239.0 m^−2 | NG m^−2 (number of grains) (wheat, harvest, Pergamino 2018): 16410.1 m^−2 | WG (weight of grains) (wheat, harvest, Pergamino 2018): 31.3
